Literature values as cited in US20070105848A1 (priority 2005, published 2007).

Assays:
[1] = system: methemoglobinemia; conditions: i.v., 1 mg/kg body weight
[2] = system: malaria
[3] = molecular target: Plasmodium falciparum glutathione reductase (Plasmodium falciparum, UniProt O15770)
[4] = system: adult humans; conditions: one week to 19 months, 100 mg b.i.d. or t.i.d. orally or 100 mg i.v.

Plasmodium falciparum glutathione reductase, sequence (O15770 47-546): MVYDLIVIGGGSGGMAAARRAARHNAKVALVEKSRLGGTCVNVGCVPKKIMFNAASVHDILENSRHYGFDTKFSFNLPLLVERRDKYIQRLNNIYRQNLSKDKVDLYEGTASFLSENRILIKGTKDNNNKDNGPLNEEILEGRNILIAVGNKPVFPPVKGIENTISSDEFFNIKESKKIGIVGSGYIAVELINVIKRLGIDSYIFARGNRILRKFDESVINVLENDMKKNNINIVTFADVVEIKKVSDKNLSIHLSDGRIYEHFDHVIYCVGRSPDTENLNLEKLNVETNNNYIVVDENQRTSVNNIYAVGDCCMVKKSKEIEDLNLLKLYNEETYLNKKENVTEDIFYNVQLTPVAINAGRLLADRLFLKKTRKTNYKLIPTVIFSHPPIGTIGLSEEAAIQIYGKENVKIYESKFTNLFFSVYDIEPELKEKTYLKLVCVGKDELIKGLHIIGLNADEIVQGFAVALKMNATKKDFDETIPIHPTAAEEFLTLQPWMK

Question: Which results are given for `CN(C)c1ccc2nc3ccc(N(C)C)cc3[s+]c2c1.[Cl-]` [Methylene blue, 3,7-bis(dimethylamino)-phenothiazin-5-ium chloride]?
Answer: treatment of methemoglobinemia [1]: effective; antimalarial activity [2]: intrinsic antimalarial activity; chloroquine sensitization [2]: can act as a chloroquine sensitizer; inhibition of Plasmodium falciparum glutathione reductase [3]: selective inhibitor; side effects on prolonged administration [4]: minimal side effects
